The values below come from patent US11242350B2, “Spirocyclic ROR-gamma modulators” (Escalier Biosciences B.V., priority 2018, dated 2022).

For the experiment, the target named is RORγt (Homo sapiens (Human), UniProt P51449). Put plainly: Gal4 ligand binding assay (RORγt Gal fusion luciferase reporter assay in HEK293T cells). The format is cell-based. To be noted: RORγt inverse agonists in RORγt Gal fusion assay. In short, it runs like this: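 Stable HEK293T line expressing the receptor fused to the Gal4 DBD, with a Gal4 UAS-driven luciferase; constitutively active, so agonism and inverse agonism both register. 10-point 1:3 titrations, 60 μM to 3 nM as prepared in media (added as 2×), 0.2% final DMSO; 24 h at 37 °C. Luminescence normalised to vehicle-only wells.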
RORγt, sequence (P51449 269-508): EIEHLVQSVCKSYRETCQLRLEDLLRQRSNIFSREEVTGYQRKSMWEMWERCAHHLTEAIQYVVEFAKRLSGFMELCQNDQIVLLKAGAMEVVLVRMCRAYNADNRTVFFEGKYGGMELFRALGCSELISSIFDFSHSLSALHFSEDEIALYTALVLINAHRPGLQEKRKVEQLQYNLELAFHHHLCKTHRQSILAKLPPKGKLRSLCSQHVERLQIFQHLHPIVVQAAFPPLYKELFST
(A reporter such as luciferase makes a cellular process visible.)
`CCc1cc(CN2CC3(C2)CN(S(C)(=O)=O)C3)ccc1-c1ccc(C(O)(C(F)(F)F)C(F)(F)F)cc1Cl` [Example 75, 2-(2-chloro-2′-ethyl-4′-((6-(methylsulfonyl)-2,6-diazaspiro[3.3]heptan-2-yl)methyl)-[1,1′-biphenyl]-4-yl)-1,1,1,3,3,3-hexafluoropropan-2-ol] yielded an IC50 of under 50 nM. Next, `CS(=O)(=O)N1CC2(CN(Cc3ccc(-c4ccc(C(O)(C(F)(F)F)C(F)(F)F)cc4)c(Cl)c3)C2)C1` [Example 47, 2-(2′-chloro-4′-((6-(methylsulfonyl)-2,6-diazaspiro[3.3]heptan-2-yl)methyl)-[1,1′-biphenyl]-4-yl)-1,1,1,3,3,3-hexafluoropropan-2-ol]: over 250 nM; `CCc1cc(CN2CCC3(CCS(=O)(=O)C3)C2)ccc1-c1ccc(C(O)(C(F)(F)F)C(F)(F)F)cc1` (stereo not shown) [Example 58, 7-((2-ethyl-4′-(1,1,1,3,3,3-hexafluoro-2-hydroxypropan-2-yl)-[1,1′-biphenyl]-4-yl)methyl)-2-thia-7-azaspiro[4.4]nonane 2,2-dioxide]: under 50 nM. Next, `CS(=O)(=O)N1CC2(CN(Cc3ccc(-c4ccc(C(O)(C(F)(F)F)C(F)(F)F)cc4)c(C(F)(F)F)c3)C2)C1` [Example 46, 1,1,1,3,3,3-hexafluoro-2-(4′-((6-(methylsulfonyl)-2,6-diazaspiro[3.3]heptan-2-yl)methyl)-2′-(trifluoromethyl)-[1,1′-biphenyl]-4-yl)propan-2-ol]: 50 to 250 nM; `CCc1cc(CN2CC3(C2)CN(C(=O)OC(C)(C)C)C3)ccc1-c1ccc(C(O)(C(F)(F)F)C(F)(F)F)cc1` [Example 1, tert-butyl 6-((2-ethyl-4′-(1,1,1,3,3,3-hexafluoro-2-hydroxypropan-2-yl)-[1,1′-biphenyl]-4-yl)methyl)-2,6-diazaspiro[3.3]heptane-2-carboxylate]: 50 to 250 nM. Next, `CCc1cc(CN2CC3(C2)CN(S(C)(=O)=O)C3)ncc1-c1ccc(C(O)(C(F)(F)F)C(F)(F)F)cc1C` [Example 64, 2-(4-(4-ethyl-6-((6-(methylsulfonyl)-2,6-diazaspiro[3.3]heptan-2-yl)methyl)pyridin-3-yl)-3-methylphenyl)-1,1,1,3,3,3-hexafluoropropan-2-ol]: under 50 nM. For the compound `CCc1cc(C(O)(C(F)(F)F)C(F)(F)F)ccc1-c1c(F)cc(CN2CC3(C2)CN(S(C)(=O)=O)C3)c(F)c1CC` [Example 71, 2-(2,2′-diethyl-3′,6′-difluoro-4′-((6-(methylsulfonyl)-2,6-diazaspiro[3.3]heptan-2-yl)methyl)-[1,1′-biphenyl]-4-yl)-1,1,1,3,3,3-hexafluoropropan-2-ol], the IC50 is under 50 nM.

A word on the IC50: it is the point on the concentration scale where inhibition reaches its midpoint. Low values mean greater potency, high ones weaker potency.
